This assay has as its target GST-hRIPK1 (8-327) (Homo sapiens (Human), UniProt Q13546). As to the kind of experiment: Fluorescent Polarization Binding (FP Binding) assay, RIPK1. Particulars: mean of at least two independent experiments. In outline:
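Compound displacement of 5 nM labelled ligand from 10 nM GST-hRIPK1 (8-327) was read as FP (531/595 nm) after 30 min at RT. Buffer: HEPES pH 7.5, NaCl, MgCl2, CHAPS, DTT, Pluronic; 1% DMSO final. IC50s were averaged over at least two independent runs.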

[1] abbreviates: 10 nM GST-hRIPK1 (8-327), 5 nM fluorescent-labeled ligand, RT, 30 min.

In general, IC50 refers to the concentration at which inhibition is half-maximal. A higher IC50 goes with lower potency.

Sequence of GST-hRIPK1 (8-327) (Q13546 8-327): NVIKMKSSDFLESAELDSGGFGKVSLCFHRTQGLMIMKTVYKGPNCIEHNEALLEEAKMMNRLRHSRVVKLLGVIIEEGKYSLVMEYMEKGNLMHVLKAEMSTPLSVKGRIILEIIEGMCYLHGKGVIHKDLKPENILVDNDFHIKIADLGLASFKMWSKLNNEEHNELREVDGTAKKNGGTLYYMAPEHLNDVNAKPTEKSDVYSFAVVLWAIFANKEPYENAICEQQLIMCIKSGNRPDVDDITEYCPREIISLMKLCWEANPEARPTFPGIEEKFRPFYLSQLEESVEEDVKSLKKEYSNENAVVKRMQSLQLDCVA

Compound `N#Cc1cncc2c1OCCN(C(=O)C1(F)CCN(c3ncc(F)cn3)C1)C2` (centres unmarked) [Example 176, 4-[3-fluoro-1-(5-fluoropyrimidin-2-yl)pyrrolidine-3-carbonyl]-3,5-dihydro-2H-pyrido[3,4-f][1,4]oxazepine-9-carbonitrile] yielded an IC50 under setting [1] of over 1000 nM.
Same read-out and setting: the same measure for `CC1(C(=O)N2CCOc3c(C#N)cncc3C2)CCOCC1` [Example 41, 4-(4-methyltetrahydropyran-4-carbonyl)-3,5-dihydro-2H-pyrido[3,4-f][1,4]oxazepine-9-carbonitrile]: 100 to 1000 nM; for `CC(C)(C(=O)N1CCOc2c(Cl)cncc2C1)C(F)F` [Example 61, 1-(9-chloro-3,5-dihydro-2H-pyrido[3,4-f][1,4]oxazepin-4-yl)-3,3-difluoro-2,2-dimethyl-propan-1-one]: 100 to 1000 nM.
As to `CC1(C(=O)N2CCOc3c(C#N)cncc3C2)CCN(c2ncc(F)cn2)CC1(F)F` (single isomer, unassigned) [Example 285, 4-[-3,3-Difluoro-1-(5-fluoropyrimidin-2-yl)-4-methyl-piperidine-4-carbonyl]-3,5-dihydro-2H-pyrido[3,4-f][1,4]oxazepine-9-carbonitrile], the IC50 (GST-hRIPK1 (8-327)) lay within 100 to 1000 nM.
For the compound `N#Cc1cncc2c1OCCN(C(=O)C1(F)CCN(C(=O)c3cccnc3)CC1)C2` [Example 95, 4-[4-fluoro-1-(pyridine-3-carbonyl)piperidine-4-carbonyl]-3,5-dihydro-2H-pyrido[3,4-f][1,4]oxazepine-9-carbonitrile], the IC50 under setting [1] is over 1000 nM.
`N#Cc1cncc2c1OCCN(C(=O)C1(C(F)(F)F)CC1)C2` [Example 48, 4-[1-(trifluoromethyl)cyclopropanecarbonyl]-3,5-dihydro-2H-pyrido[3,4-f][1,4]oxazepine-9-carbonitrile]: under setting [1], the IC50 fell in the range of 100 to 1000 nM.
Turning to `Cn1cnc2cnc(N3CCC(F)(C(=O)N4CCOc5c(C#N)cncc5C4)CC3)nc21` [Example 169, 4-[4-fluoro-1-(9-methylpurin-2-yl)piperidine-4-carbonyl]-3,5-dihydro-2H-pyrido[3,4-f][1,4]oxazepine-9-carbonitrile], the IC50 under setting [1] fell in the range of 100 to 1000 nM.
As to `N#Cc1cncc2c1OCCN(C(=O)C1(F)CCN(c3ccncn3)CC1)C2` [Example 88, 4-(4-fluoro-1-pyrimidin-4-yl-piperidine-4-carbonyl)-3,5-dihydro-2H-pyrido[3,4-f][1,4]oxazepine-9-carbonitrile], under setting [1], the IC50 was in the range of 100 to 1000 nM.
For the compound `O=C(C1CCN(c2ccnc3ccnn23)CC1(F)F)N1CCOc2c(F)cncc2C1` (centres unmarked) [Example 252, (3,3-difluoro-1-pyrazolo[1,5-a]pyrimidin-7-yl-4-piperidyl)-(9-fluoro-3,5-dihydro-2H-pyrido[3,4-f][1,4]oxazepin-4-yl)methanone], the IC50 (GST-hRIPK1 (8-327)) was in the range of 100 to 1000 nM.
The same measure, in the same setting: under `CC(C)(C(=O)N1CCOc2c(C#N)cncc2C1)C1CC(OC(F)(F)F)C1` (centres unmarked) [Example 279, 4-[2-methyl-2-[3-(trifluoromethoxy)cyclobutyl]propanoyl]-3,5-dihydro-2H-pyrido[3,4-f][1,4]oxazepine-9-carbonitrile] stands 0.1 to 100 nM.
Under setting [1], `CCC1(C(=O)N2CCOc3c(C#N)cncc3C2)CCN(c2ncc(F)cn2)CC1` [Example 98, 4-[4-ethyl-1-(5-fluoropyrimidin-2-yl)piperidine-4-carbonyl]-3,5-dihydro-2H-pyrido[3,4-f][1,4]oxazepine-9-carbonitrile] had an IC50 of 100 to 1000 nM.
The compound `N#Cc1cncc2c1OCCN(C(=O)C1(F)CCN(c3ncc(F)cn3)CC1(F)F)C2` (single isomer, unassigned) [Example 296, 4-[3,3,4-Trifluoro-1-(5-fluoropyrimidin-2-yl)piperidine-4-carbonyl]-3,5-dihydro-2H-pyrido[3,4-f][1,4]oxazepine-9-carbonitrile] displayed a concentration for half-maximal inhibition (IC50) (GST-hRIPK1 (8-327)) of 0.1 to 100 nM.
With `O=C(C1CCN(c2nccn3ncnc23)C[C@@H]1F)N1CCOc2c(F)cncc2C1` (stereo partly drawn) [Example 257, (9-fluoro-3,5-dihydro-2H-pyrido[3,4-f][1,4]oxazepin-4-yl)-[(3,4)-trans-3-fluoro-1-([1,2,4]triazolo[1,5-a]pyrazin-8-yl)-4-piperidyl]methanone], under “GST-hRIPK1 (8-327)”, the 50% inhibitory concentration (IC50) fell in the range of 100 to 1000 nM.
The compound `COc1ccnc(N2CCC(C(=O)N3Cc4cncc(C#N)c4OC[C@H]3C)CC2)n1` [Example 119, (3R)-4-(1-(4-methoxypyrimidin-2-yl)piperidine-4-carbonyl)-3-methyl-2,3,4,5-tetrahydropyrido[3,4-f][1,4]oxazepine-9-carbonitrile] had an IC50 under setting [1] of 0.1 to 100 nM.
`CC1CC(C(=O)N2CCOc3c(C#N)cncc3C2)CCN1c1ncc(F)cn1` (centres unmarked) [Example 91, 4-[1-(5-fluoropyrimidin-2-yl)-2-methyl-piperidine-4-carbonyl]-3,5-dihydro-2H-pyrido[3,4-f][1,4]oxazepine-9-carbonitrile] had an IC50 under setting [1] of 100 to 1000 nM.
The compound `N#Cc1cncc2c1OCCN(C(=O)C1CCN(c3ccnc4c(Cl)cnn34)CC1)C2` [Example 229, 4-[1-(3-chloropyrazolo[1,5-a]pyrimidin-7-yl)piperidine-4-carbonyl]-3,5-dihydro-2H-pyrido[3,4-f][1,4]oxazepine-9-carbonitrile] showed an IC50 (GST-hRIPK1 (8-327)) of 0.1 to 100 nM.
Compound `CC(C(=O)N1CCOc2c(C#N)cncc2C1)C1CC1` (centres unmarked) [Example 146, 4-(2-cyclopropylpropanoyl)-3,5-dihydro-2H-pyrido[3,4-f][1,4]oxazepine-9-carbonitrile] yielded an IC50 under setting [1] of 100 to 1000 nM.
The compound `CC1(C(=O)N2CCOc3c(C#N)cncc3C2)CC1(F)F` (centres unmarked) [Example 50, 4-(2,2-difluoro-1-methyl-cyclopropanecarbonyl)-3,5-dihydro-2H-pyrido[3,4-f][1,4]oxazepine-9-carbonitrile] yielded an IC50 under setting [1] of 100 to 1000 nM.
Take `CC(F)C(C)(C)C(=O)N1CCOc2c(C#N)cncc2C1` (single isomer, unassigned) [Example 273, 4-(3-Fluoro-2,2-dimethyl-butanoyl)-3,5-dihydro-2H-pyrido[3,4-f][1,4]oxazepine-9-carbonitrile]: where the note is “GST-hRIPK1 (8-327)”, the concentration for half-maximal inhibition (IC50) was in the range of 100 to 1000 nM.
`COC1CN(c2ncc(F)cn2)CCC1C(=O)N1CCOc2c(C#N)cncc2C1` (centres unmarked) [Example 309, 4-[1-(5-fluoropyrimidin-2-yl)-3-methoxy-piperidine-4-carbonyl]-3,5-dihydro-2H-pyrido[3,4-f][1,4]oxazepine-9-carbonitrile] came in with an IC50 (GST-hRIPK1 (8-327)) of 100 to 1000 nM.
In the case of `N#Cc1cncc2c1OCCN(C(=O)C1(F)CC1)C2` [Example 140, 4-(1-fluorocyclopropanecarbonyl)-3,5-dihydro-2H-pyrido[3,4-f][1,4]oxazepine-9-carbonitrile], the IC50 under setting [1] is over 1000 nM.
In the case of `N#Cc1cncc2c1OCCN(C(=O)C1(C(F)F)CC1)C2` [Example 139, 4-[1-(difluoromethyl)cyclopropanecarbonyl)-3,5-dihydro-2H-pyrido[3,4-f][1,4]oxazepine-9-carbonitrile], the IC50 under setting [1] was over 1000 nM.
The same measure, in the same setting: the same measure for `CC(C)(C(=O)N1CCOc2cccc(C#N)c2C1)C(F)F` [Example 27, 4-(3,3-difluoro-2,2-dimethyl-propanoyl)-3,5-dihydro-2H-1,4-benzoxazepine-6-carbonitrile]: over 1000 nM.
Still for that read-out and setting: the same measure for `N#Cc1cncc2c1OCCN(C(=O)C1(C3CC3)CC1)C2` [Example 46, 4-(1-cyclopropylcyclopropanecarbonyl)-3,5-dihydro-2H-pyrido[3,4-f][1,4]oxazepine-9-carbonitrile]: 100 to 1000 nM.
As for `CC1CN(C(=O)C(C)(C)C(F)F)Cc2ccccc2O1` (centres unmarked) [Example 36, 3,3-difluoro-2,2-dimethyl-1-(2-methyl-2,3-dihydrobenzo[f][1,4]oxazepin-4(5H)-yl)propan-1-one], the IC50 under setting [1] is over 1000 nM.
The same measure, in the same setting: the same measure for `C[C@@H]1COc2c(C#N)cncc2CN1C(=O)C1(F)CCN(c2ncc(F)cn2)CC1` [Example 86, (3R)-4-[4-fluoro-1-(5-fluoropyrimidin-2-yl)piperidine-4-carbonyl]-3-methyl-3,5-dihydro-2H-pyrido[3,4-f][1,4]oxazepine-9-carbonitrile]: 0.1 to 100 nM.
For the compound `N#Cc1cncc2c1OCCN(C(=O)C13CC(COc4ncc(F)cn4)(C1)C3)C2` [Example 93, 4-(3-(((5-fluoropyrimidin-2-yl)oxy)methyl)bicyclo[1.1.1]pentane-1-carbonyl)-2,3,4,5-tetrahydropyrido[3,4-f][1,4]oxazepine-9-carbonitrile], under setting [1], the 50% inhibitory concentration (IC50) was in the range of 100 to 1000 nM.
Compound `N#Cc1cncc2c1OCCN(C(=O)C1CCN(c3nccn4ncnc34)CC1F)C2` (single isomer, unassigned) [Example 301, 4-[3-Fluoro-1-([1,2,4]triazolo[1,5-a]pyrazin-8-yl)piperidine-4-carbonyl]-3,5-dihydro-2H-pyrido[3,4-f][1,4]oxazepine-9-carbonitrile] displayed an IC50 (GST-hRIPK1 (8-327)) of 100 to 1000 nM.
On the same count and under the same terms, the same measure for `N#Cc1cncc2c1OCCN(C(=O)C1CCN(c3ncc(F)cn3)CC1F)C2` (single isomer, unassigned) [Example 306, 4-[3-Fluoro-1-(5-fluoropyrimidin-2-yl)piperidine-4-carbonyl]-3,5-dihydro-2H-pyrido[3,4-f][1,4]oxazepine-9-carbonitrile]: 0.1 to 100 nM.
Turning to `CC(C)(C(=O)N1CCOc2c(C#N)cncc2C1)C(F)F` [Example 29, 4-(3,3-difluoro-2,2-dimethyl-propanoyl)-3,5-dihydro-2H-pyrido[3,4-f][1,4]oxazepine-9-carbonitrile], the IC50 under setting [1] was 0.1 to 100 nM.
Same read-out and setting: under `COc1cnc(Cl)nc1N1CCC(F)(C(=O)N2CCOc3c(C#N)cncc3C2)CC1` [Example 186, 4-[1-(2-chloro-5-methoxy-pyrimidin-4-yl)-4-fluoro-piperidine-4-carbonyl]-3,5-dihydro-2H-pyrido[3,4-f][1,4]oxazepine-9-carbonitrile] stands over 1000 nM.
`COc1nc(N2CCC(OC)(C(=O)N3CCOc4c(F)cncc4C3)CC2)ncc1F` [Example 122, (9-fluoro-3,5-dihydro-2H-pyrido[3,4-f][1,4]oxazepin-4-yl)-[1-(5-fluoro-4-methoxy-pyrimidin-2-yl)-4-methoxy-4-piperidyl]methanone] returned an IC50 under setting [1] of 0.1 to 100 nM.

Values taken from patent US11203600B2 (Denali Therapeutics Inc., priority 2017, dated 2021).
